Like-named read-outs stand apart in the source and are kept apart here.
What was measured:
[1] = biological target: T1, human cytochrome P450 51 (hCYP51) (Homo sapiens, UniProt Q16850); test: enzymatic assay, [[…]-3H]lanosterol conversion by purified hCYP51/CPR, radio-HPLC; type: biochemical
T1 sequence (Q16850 1-509): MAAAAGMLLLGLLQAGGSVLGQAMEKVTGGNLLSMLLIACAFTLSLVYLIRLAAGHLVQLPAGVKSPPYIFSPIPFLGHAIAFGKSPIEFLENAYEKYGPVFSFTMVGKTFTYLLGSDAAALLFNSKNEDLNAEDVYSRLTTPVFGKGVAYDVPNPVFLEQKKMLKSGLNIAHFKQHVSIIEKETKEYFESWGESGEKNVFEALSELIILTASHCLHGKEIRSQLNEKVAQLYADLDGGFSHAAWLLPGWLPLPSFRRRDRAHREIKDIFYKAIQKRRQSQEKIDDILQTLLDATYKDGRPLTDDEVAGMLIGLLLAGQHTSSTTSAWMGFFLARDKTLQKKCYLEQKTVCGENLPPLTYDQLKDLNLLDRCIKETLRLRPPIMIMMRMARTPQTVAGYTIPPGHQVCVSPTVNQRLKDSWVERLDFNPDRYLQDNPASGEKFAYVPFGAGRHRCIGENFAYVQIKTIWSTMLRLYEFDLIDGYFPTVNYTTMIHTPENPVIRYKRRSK

[2] = biological target: T1, human cytochrome P450 51 (hCYP51); test: as above; type: biochemical; remark: listed apart in the source

IC50 [1] [µM] | Compound | IC50 [2] [µM]
50.5 | C[C@@H](c1nc(-c2ccc(C#N)cc2)cs1)[C@](O)(Cn1cncn1)c1cc(F)ccc1F [ICZ, isavuconazole] | –
– | CC[C@@H]([C@H](C)O)n1ncn(-c2ccc(N3CCN(c4ccc(OC[C@@H]5CO[C@@](Cn6cncn6)(c6ccc(F)cc6F)C5)cc4)CC3)cc2)c1=O [PCZ, posaconazole] | 8.3
